“Also recorded” adds a separate entry of the source.
Experiments:
[1] = CO release kinetics in 50 mM HEPES buffer (pH 7.4), GC-RCP; format: physicochemical; conditions: for CO equivalents released in 24 hours in the dark / CO equivalents released in 24 hours under light: 50 mM HEPES buffer
Method: The quantization of the released CO was performed according to Vreman et al. Anal. Biochem. (2005) 341: 280-289 using a Gas Chromatograph with a Reducing Compound Photometer detector (GC-RCP; Peak Laboratories, Mountain View, Calif.), which allows quantifying CO in gas mixtures at concentrations as low as 1-2 parts per billion (ppb).
General Method for the Determination of CO Release in HEPES Buffer
The CO release kinetics of all compounds was evaluated in 50 mM HEPES buffer (pH 7.4) in a sealed 8-mL vial. […] Since light activation can release CO from molybdenum carbonyl compounds, CO release was determined with solutions in closed, clear glass vials kept under light (on the laboratory bench under regular laboratory lighting) or in the dark (wrapped in aluminum foil and kept inside a cardboard box). Gas samples (from 10 μL up to 500 μL) of the vial headspace (7 ml volume) were removed with a gas-tight syringe at 15, 30, 60, 120, 240, 360 min, and 24 hours after start of the incubation. The gas samples were injected into sealed vials containing air (8 mL) for dilution. The entire gas volume of the vials (8 mL) was transferred with carrier gas to the GC-RCP and analyzed for CO. The GC-RCP had been calibrated with gas containing a known amount of CO. The calibration curve had been established starting with gas from a cylinder which contained synthetic air with 30 ppm CO (Linde, Cat. No. 14960013) and preparing dilutions in 8-mL vials as described above.
The CO equivalents released at each time point from each compound were determined by the following equation: (CO released (pmol)×number of CO ligands in the molecule)/([CO] in the compound (pmol)).

[2] = test system: APAP-induced acute liver failure (ALF) model; assay: APAP-induced acute liver failure (ALF) model, sublethal (300 mg/kg APAP i.p.); format: in vivo, C57Bl/6 male mice; conditions: for % ALT increase relative to increase with APAP alone Experiment 1 / % ALT increase relative to increase with APAP alone Experiment 2 / Measured ALT values (mean ± S.D.) Experiment 1 / Measured ALT values (mean ± S.D.) Experiment 2: alone or plus NAC (300 mg/kg), at 1 h and 3 h post APAP; for Measured ALT values (mean ± S.D.) Experiment 1 / Measured ALT values (mean ± S.D.) Experiment 2: serum 22 h; for therapeutic activity in acetaminophen induced ALF (in words): mouse, in vivo
Method: Compound 3b was studied in a sublethal model for acetaminophen (APAP)-induced Liver Injury.
ALF was induced in C57Bl/6 male mice with a single dose of acetaminophen (300 mg/kg) by i.p. injection. […] Serum alanine aminotransferase (ALT) was measured 22 h after APAP injection (n=5 mice for each group). […] ALF was induced in C57Bl/6 male mice with a single dose of acetaminophen (300 mg/kg) by i.p. injection. […] Twenty-two hours after APAP injection serum ALT was measured (indicated in FIG. 11A), centrilobular sections of mouse livers were cut and stained with hematoxylin and eosin, and the percentage of liver necrosis was determined. The data indicates a dose-dependent reduction of ALT levels of 9% to 83% relative to APAP control, and a dose-dependent reduction of necrosis of 0% to 56% relative to APAP control.
ALF was induced in C57Bl/6 male mice with a single dose of acetaminophen (300 mg/kg) by i.p. injection. […] Alanine aminotransferase (ALT) was measured 22 h after APAP injection (n=4 or n=5 mice for each group).
ALF was induced in C57Bl/6 male mice with a single dose of acetaminophen (300 mg/kg) by i.p. injection. […] Twenty-two hours after APAP injection, serum ALT was measured (indicated in FIGS. 12A-12B), centrilobular sections of mouse livers were cut and stained with hematoxylin and eosin, and the percentage of liver necrosis was determined.
ALF was induced in C57Bl/6 male mice with a single dose of acetaminophen (300 mg/kg) by i.p. injection.
FIG. 14 depicts the effect of late treatment with Compound 3b on serum ALT in ALF model. ALF was induced in C57Bl/6 male mice with a single dose of acetaminophen (300 mg/kg) by i.p. injection. At sixteen hours after APAP injection, the animals were treated with different doses of Compound 3b (0.3, 3, 30 or 60 mg/kg). Alanine aminotransferase (ALT) was measured 22 h after APAP injection (n=4 or n=5 mice for each group).
ALF was induced in C57Bl/6 male mice with a single dose of acetaminophen (300 mg/kg) by i.p. injection. […] Experiments 1 and 2 represent two independent experiments. Alanine aminotransferase (ALT) was measured 22 h after APAP injection (n=4 or n=5 mice for each group). The ALT levels and the respective percentage of ALT increase, relative to the increase observed in mice injected with APAP alone, are presented in Table 7.
ALF was induced in C57Bl/6 male mice with a single dose of acetaminophen (300 mg/kg) by i.p. injection. […] Twenty-two hours after APAP injection, serum ALT was measured and centrilobular sections of mouse livers were cut and stained with hematoxylin and eosin.

## [C-]#[N+]C(C)(C)C(=O)O.[C-]#[N+]C(C)(C)C(=O)O.[C-]#[N+]C(C)(C)C(=O)O.[C-]#[O+].[C-]#[O+].[C-]#[O+].[Mo] [Compound 3b, tricarbonyl[tris(2-isocyano-2-methyl-propionic acid)]Mo(0)]
[1]
  CO equivalents released in 24 hours in the dark: 1.3 CO equivalents
[1]; under light
  CO equivalents released in 24 hours under light: 1.8 CO equivalents
[2]; 0.3, 3, 30 or 60 mg/kg at 16 h, ALT 22 h after APAP
  effect of a single dose administered 16 hours after APAP injury (in words): dose-dependent therapeutic effect
[2]; 2×60 and 2×120 mg/kg, NAC 2×300 mg/kg, evaluated 22 h post APAP
  therapeutic effect, 2 doses given at 1 h and 3 h after APAP (in words): highly therapeutic; also recorded: as effective as NAC
[2]; 3b 2 × 60 mg/kg
  % ALT increase relative to increase with APAP alone Experiment 1: 57.2 ± 14.5%
  % ALT increase relative to increase with APAP alone Experiment 2: 45.0 ± 8.1%
  Measured ALT values (mean ± S.D.) Experiment 1: 5180 ± 1312 U/L
  Measured ALT values (mean ± S.D.) Experiment 2: 5500 ± 987 U/L
[2]; 3b 2 × 120 mg/kg
  % ALT increase relative to increase with APAP alone Experiment 1: 49.5 ± 7.0%
  % ALT increase relative to increase with APAP alone Experiment 2: 35.7 ± 7.6%
  Measured ALT values (mean ± S.D.) Experiment 1: 4480 ± 630 U/L
  Measured ALT values (mean ± S.D.) Experiment 2: 4360 ± 926 U/L
[2]; Compound 3b 2×100 or 2×300 mg/kg, NAC 2×300 mg/kg, at one and three hours after APAP, 22 h
  liver histology: necrosis (in words): very little if any necrosis
[2]; five hours and seven hours after APAP, NAC 150 mg/kg, Compound 3b 120 mg/kg
  effect on serum ALT when given late after APAP injury (in words): therapeutic
[2]
  therapeutic activity in acetaminophen induced ALF (in words): strong therapeutic activity

## tricarbonyl[tris(isocyanoacetic acid)]Mo(0) [Compound 1b]
[1]
  CO equivalents released in 24 hours in the dark: 1.4 CO equivalents
[1]; under light
  CO equivalents released in 24 hours under light: 1.6 CO equivalents
[2]; 60 mg/kg, 1 h after APAP
  reduction of necrosis relative to APAP control (in words): does not reduce necrosis
[2]
  therapeutic activity in acetaminophen induced ALF (in words): lack of activity

## CC([N+]#[C][Mo-6]([C]#[O+])([C]#[O+])([C]#[O+])([C]#[N+]C(C)C(=O)O)[C]#[N+]C(C)C(=O)O)C(=O)O (centres unmarked) [Compound 2b, tricarbonyl[tris(2-isocyanopropionic acid)]Mo(0)]
[1]
  CO equivalents released in 24 hours in the dark: 1.2 CO equivalents
[1]; under light
  CO equivalents released in 24 hours under light: 1.5 CO equivalents
[1]; 50 mM HEPES pH 7.4, 50 μM, under light
  time to release 0.5 CO equivalents under light: about 90 minutes
[2]
  therapeutic activity in acetaminophen induced ALF (in words): still retains therapeutic activity although lower than that of Compound 3b

Reference: patent US9163044B2, “Carbon monoxide releasing molecules and uses thereof” (Alfama, Inc., priority 2011, dated 2015)
